“And” between values parts separate entries of the source, which are not always exact repeats. Equal entries are not always repeated. Structures can show the parent of a compound that is named as a salt.
Experiments:
[1] = Stability in the neat state at 40°C (positive chlorine by thiosulfate titration); format: physicochemical; conditions: HYDROCHLORIDE
Description: ^a Weight of sample analyzed.
^b Volume of 10^^-2 N sodium thiosulfate required to titrate
the sample at time (T).
^c Percentage of positive chlorine in the sample analyzed.

E. coli ATCC 10536 = experiment: Bactericidal endpoint (time for complete sterilization), ATCC 10536; format: cell-based
Description: (§1) The procedure employed to determine the antibacterial activity of 3-chloro-2,2,4,4-tetramethyl-tetrahydro1,3-oxazolidine and 3-chloro-2,2-[spiro-1'-methyl-4'-piperidinyl]-4,4-dimethyl-1,3-oxazolidinewas based primarily on a modification of the serial dilution method of analysis. However, instead of determining the minimum inhibitory concentration parameters for the compound investigated, applicants alternatively chose to determine the bactericidal endpoint for a given concentration of the compound investigated. Consequently, applicants' studies were established to determine the time required for complete sterilization of the micro-organism tested, when exposed to a given concentration of the compound investigated.
(§2) A stock solution of each compound identified above was prepared using an appropriate buffered solution.
(§3) For screening in the absence of a denaturing agent (e.g., horse serum) an equal volume of distilled water and the resulting solution was subjected to the screen.
(§4) For screening in the presence of a denaturing agent, a volume of the stock solution was diluted using an equal volume of 10% horse serum. When necessary, the final solution was adjusted to the desired pH using 1N HCl and the solution was permitted to stand at room temperature for thirty minutes prior to the screening procedure.
(§5) To 5 ml of the stock solution being evaluated, there was added 0.2 ml of an overnight broth culture containing the particular micro-organism being investigated (see above). At time intervals of 0.5, 1, 2, 3, 4, 5, . . . minutes, a loop of this suspension was subcultured into 5 ml of a sterile nutrient broth. All the samples were then incubated at 37°C for seven days with daily observation for evidence of bacterial growth. The time interval reported is for that sample in which no bacterial growth was observed after the incubation period.

[2] = system: Bord. bronchiseptica ATCC 4617; experiment: Bactericidal endpoint (time for complete sterilization), ATCC 4617; format: cell-based
Description: as §1, §2, §3, §4, §5

Staph. aureus ATCC 6538 = experiment: Bactericidal endpoint (time for complete sterilization), ATCC 6538; format: cell-based
Description: as §1, §2, §3, §4, §5

[3] = Stability analysis in buffered solution (half-life); format: physicochemical
[4] = system: Kleb. pneumoniae ATCC 10031; experiment: Bactericidal endpoint (time for complete sterilization), ATCC 10031; format: cell-based
Description: as §1, §2, §3, §4, §5

[5] = system: Staph. epidermidis ATCC 12228; experiment: Bactericidal endpoint (time for complete sterilization), ATCC 12228; format: cell-based
Description: as §1, §2, §3, §4, §5

[6] = system: Pseud. aeruginosa ATCC 9027; experiment: Bactericidal endpoint (time for complete sterilization), ATCC 9027; format: cell-based; conditions: for Antibacterial activity, time, 9027: 0.5 M NaH2PO4 pH 7.0
Description: as §1, §2, §3, §4, §5

6501 = experiment: Bactericidal endpoint (time for complete sterilization), 6501; format: cell-based
Description: as §1, §2, §3, §4, §5

[7] = 0.1M Na2B4O7 pH 8.8, H2O, 8.13 × 10^-3 M (1333 ppm)
[8] = 0.1M Na2B4O7 pH 8.8, Serum, 8.13 × 10^-3 M (1333 ppm)
[9] = 0.1M NaH2PO4 pH 7.00, H2O, 8.92 × 10^-3 M (1463 ppm)
[10] = 0.1M NaH2PO4 pH 7.00, Serum, 8.92 × 10^-3 M (1463 ppm)
[11] = 0.1M NaOAc pH 4.6, H2O, 8.26 × 10^-3 M (1355 ppm)
[12] = 0.1M NaOAc pH 4.6, Serum, 8.26 × 10^-3 M (1355 ppm)
[13] = 0.1 M NaOAc pH 4.6, H2O, 6.52 × 10^-3 M (1428 ppm)
[14] = 0.1 M NaOAc pH 4.6, Serum, 5.69 × 10^-3 M (1246 ppm)
[15] = 0.5 M NaH2PO4 pH 7.0, H2O, 20.75 × 10^-3 M (4525 ppm)
[16] = 0.5 M NaH2PO4 pH 7.0, Serum, 19.88 × 10^-3 M (4334 ppm)
[17] = 0.5 M NaOAc pH 4.6, H2O, 21.00 × 10^-3 M (4578 ppm)
[18] = 0.5 M NaOAc pH 4.6, Serum, 20.50 × 10^-3 M (4469 ppm)

## CN1CCC2(CC1)OCC(C)(C)N2Cl [3-CHLORO-2,2-[SPIRO-1'-METHYL-4'-PIPERIDINIUM]4,4-DIMETHYL-1,3-OXAZOLIDINE HYDROCHLORIDE]
[1]; 0 days
  %Cl (percentage of positive chlorine in the sample analyzed): 13.7% and 13.1%
[1]; 1 day
  %Cl (percentage of positive chlorine in the sample analyzed): 12.3% and 12.5%
[1]; 2 days
  %Cl (percentage of positive chlorine in the sample analyzed): 12.3% and 11.9%
[1]; 3 days
  %Cl (percentage of positive chlorine in the sample analyzed): 12.5% and 12.2%
[1]; 4 days
  %Cl (percentage of positive chlorine in the sample analyzed): 12.1% and 12.3%
[1]; 5 days
  %Cl (percentage of positive chlorine in the sample analyzed): 12.3% and 12.4%
[1]; 7 days
  %Cl (percentage of positive chlorine in the sample analyzed): 12.2% and 12.1%
[1]; 10 days
  %Cl (percentage of positive chlorine in the sample analyzed): 11.9% and 11.8%
[1]; 14 days
  %Cl (percentage of positive chlorine in the sample analyzed): 12.1% and 11.8%
[1]; 21 days
  %Cl (percentage of positive chlorine in the sample analyzed): 12.0% and 12.1%
[1]; 28 days
  %Cl (percentage of positive chlorine in the sample analyzed): 11.5% and 11.6%
[1]; 35 days
  %Cl (percentage of positive chlorine in the sample analyzed): 11.8% and 11.6%
[1]; 51 days
  %Cl (percentage of positive chlorine in the sample analyzed): 9.5%

## CC1(C)COC(C)(C)N1Cl [3-chloro-2,2,4,4-tetramethyl-tetrahydro-1,3-oxazolidine]
E. coli ATCC 10536; [7]
  Germicidal activity time, 10536: 2 min
E. coli ATCC 10536; [8]
  Germicidal activity time, 10536: 4 min
E. coli ATCC 10536; [9]
  Germicidal activity time, 10536: 0.5 min
E. coli ATCC 10536; [10]
  Germicidal activity time, 10536: 3 min
E. coli ATCC 10536; [11]
  Germicidal activity time, 10536: 0.5 min
E. coli ATCC 10536; [12]
  Germicidal activity time, 10536: 3 min
[2]; [7]
  Germicidal activity time, 4617: 3 min
[2]; [8]
  Germicidal activity time, 4617: 8 min
[2]; [9]
  Germicidal activity time, 4617: 1 min
[2]; [10]
  Germicidal activity time, 4617: > 10 min
[2]; [11]
  Germicidal activity time, 4617: 0.5 min
[2]; [12]
  Germicidal activity time, 4617: 6 min
Staph. aureus ATCC 6538; [7]
  Germicidal activity time, 6538: > 5 min
Staph. aureus ATCC 6538; [8]
  Germicidal activity time, 6538: > 10 min
Staph. aureus ATCC 6538; [9]
  Germicidal activity time, 6538: 3 min
Staph. aureus ATCC 6538; [10]
  Germicidal activity time, 6538: > 10 min
Staph. aureus ATCC 6538; [11]
  Germicidal activity time, 6538: 0.5 min
Staph. aureus ATCC 6538; [12]
  Germicidal activity time, 6538: > 10 min
[3]; 0.1 M Na2B4O7 pH 9.3, 40 °C, initial concentration 1.52 × 10^-3 M
  half-life at 1520 µM: ~5 h
[3]; 0.1 M Na2B4O7 pH 9.3, 40 °C, initial concentration 2.49 × 10^-3 M
  half-life at 2490 µM: ~4.6 h
[3]; 0.1 M Na2B4O7 pH 9.3, 40 °C, initial concentration 5.98 × 10^-3 M
  half-life at 5980 µM: ~3.3 h
[3]; 0.1 M NaH2PO4 pH 7.0, 40 °C, initial concentration 1.68 × 10^-3 M
  half-life at 1680 µM: ~70 h
[3]; 0.1 M NaH2PO4 pH 7.0, 40 °C, initial concentration 3.05 × 10^-3 M
  half-life at 3050 µM: ~54 h
[3]; 0.1 M NaH2PO4 pH 7.0, 40 °C, initial concentration 6.70 × 10^-3 M
  half-life at 6700 µM: ~54 h
[3]; 0.1 M NaOAc pH 4.6, 40 °C, initial concentration 1.88 × 10^-3 M
  half-life at 1880 µM: 2.2 h
[3]; 0.1 M NaOAc pH 4.6, 40 °C, initial concentration 2.59 × 10^-3 M
  half-life at 2590 µM: 2.2 h
[3]; 0.1 M NaOAc pH 4.6, 40 °C, initial concentration 5.47 × 10^-3 M
  half-life at 5470 µM: 2.6 h
[3]; H2O, initial concentration 6.23 × 10^-3 M
  half-life at 6230 µM: ~58 h
[4]; [7]
  Germicidal activity time, 10031: 4 min
[4]; [8]
  Germicidal activity time, 10031: 9 min
[4]; [9]
  Germicidal activity time, 10031: 0.5 min
[4]; [10]
  Germicidal activity time, 10031: 5 min
[4]; [11]
  Germicidal activity time, 10031: 0.5 min
[4]; [12]
  Germicidal activity time, 10031: > 10 min
[5]; [7]
  Germicidal activity time, 12228: > 5 min
[5]; [8]
  Germicidal activity time, 12228: > 10 min
[5]; [9]
  Germicidal activity time, 12228: 1 min
[5]; [10]
  Germicidal activity time, 12228: 6 min
[5]; [11]
  Germicidal activity time, 12228: 0.5 min
[5]; [12]
  Germicidal activity time, 12228: > 10 min
[6]; [7]
  Germicidal activity time, 9027: 2 min
[6]; [8]
  Germicidal activity time, 9027: 4 min
[6]; [9]
  Germicidal activity time, 9027: 1 min
[6]; [10]
  Germicidal activity time, 9027: 7 min
[6]; [11]
  Germicidal activity time, 9027: 0.5 min
[6]; [12]
  Germicidal activity time, 9027: 4 min

## CN1CCC2(CC1)OCC(C)(C)N2Cl [3-chloro-2,2-[spiro-1'-methyl-4'-piperidinyl]-4,4-dimethyl-1,3-oxazolidine]
E. coli ATCC 10536; [13]
  Antibacterial activity, time, 10536: 0.5 min
E. coli ATCC 10536; [14]
  Antibacterial activity, time, 10536: 2 min
E. coli ATCC 10536; [15]
  Antibacterial activity, time, 10536: 0.5 min
E. coli ATCC 10536; [16]
  Antibacterial activity, time, 10536: 7 min
E. coli ATCC 10536; [17]
  Antibacterial activity, time, 10536: 0.5 min
E. coli ATCC 10536; [18]
  Antibacterial activity, time, 10536: 0.5 min
[2]; [15]
  Antibacterial activity, time, 4617: 0.5 min
[2]; [16]
  Antibacterial activity, time, 4617: 5 min
[2]; [17]
  Antibacterial activity, time, 4617: 0.5 min
[2]; [18]
  Antibacterial activity, time, 4617: 1 min
Staph. aureus ATCC 6538; [13]
  Antibacterial activity, time, 6538: 5 min
Staph. aureus ATCC 6538; [14]
  Antibacterial activity, time, 6538: > 10 min
Staph. aureus ATCC 6538; [15]
  Antibacterial activity, time, 6538: 1 min
Staph. aureus ATCC 6538; [16]
  Antibacterial activity, time, 6538: > 10 min
Staph. aureus ATCC 6538; [17]
  Antibacterial activity, time, 6538: 0.5 min
Staph. aureus ATCC 6538; [18]
  Antibacterial activity, time, 6538: 3 min
[4]; [13]
  Antibacterial activity, time, 10031: 0.5 min
[4]; [14]
  Antibacterial activity, time, 10031: 7 min
[4]; [15]
  Antibacterial activity, time, 10031: 1 min
[4]; [16]
  Antibacterial activity, time, 10031: 8 min
[4]; [17]
  Antibacterial activity, time, 10031: 0.5 min
[4]; [18]
  Antibacterial activity, time, 10031: 0.5 min
[5]; [13]
  Antibacterial activity, time, 12228: 1 min
[5]; [14]
  Antibacterial activity, time, 12228: > 10 min
[5]; [15]
  Antibacterial activity, time, 12228: 1 min
[5]; [16]
  Antibacterial activity, time, 12228: 5 min
[5]; [17]
  Antibacterial activity, time, 12228: 0.5 min
[5]; [18]
  Antibacterial activity, time, 12228: 2 min
[6]; [13]
  Antibacterial activity, time, 9025: 0.5 min
[6]; [14]
  Antibacterial activity, time, 9025: > 10 min
[6]; H2O, 20.75 × 10^-3 M (4525 ppm)
  Antibacterial activity, time, 9027: 1 min
[6]; Serum, 19.88 × 10^-3 M (4334 ppm)
  Antibacterial activity, time, 9027: 10 min
[6]; [17]
  Antibacterial activity, time, 9025: 0.5 min
[6]; [18]
  Antibacterial activity, time, 9025: 1 min
6501; [13]
  Antibacterial activity, time, 6501: 0.5 min
6501; [14]
  Antibacterial activity, time, 6501: 3 min
6501; [15]
  Antibacterial activity, time, 6501: 1 min
6501; [16]
  Antibacterial activity, time, 6501: 7 min
6501; [17]
  Antibacterial activity, time, 6501: 0.5 min
6501; [18]
  Antibacterial activity, time, 6501: 0.5 min

From patent publication US3954985A, “Method for inhibiting bacterial growth with certain selected 3-chloro-tetrahydro-1,3-oxazines or oxazolidines” (INTERx Research Corporation, priority 1975, dated 1976)
